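Growth conditions: 96-well plates. Treatment: test compound, 48 hours, 5 concentrations. Analysis: linear interpolation between bracketing concentrations; unreached endpoints set to highest concentration. Abbreviation: GI50, concentration required for 50% inhibition of growth. TGI is the concentration that stops growth completely.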

Some test systems named below: BT-549 breast; MCF7 breast; MDA-MB-435; MDA-MB-231 breast.
Assay in all cases: NCI-60 cell line screen, 48 h

For the molecule `CCOC1Oc2ccc(C)cc2C(=O)/C1=C\Nc1ccc(C(N)=O)cc1` (stereo unspecified), the GI50 was 15500 nM in the test with BT-549 breast, 25000 nM with MCF7 breast, 20100 nM in the test on MDA-MB-435 and 16.7 µM with MDA-MB-231 breast. The TGI in the test on BT-549 breast is 62.9 µM; in the test on MCF7 breast it was above 100 µM; in the test on MDA-MB-435, 50.8 µM; in the test on MDA-MB-231 breast, 36 µM.
For the molecule `O=C(Nc1ccc(-c2nc(N3CCOCC3)c3cccn3n2)cc1)Nc1cccnc1`, the GI50 in the test on BT-549 breast was 145 nM; in the test on MCF7 breast, 48.3 nM; with MDA-MB-435, 225 nM. In addition, the TGI was 0.951 µM with BT-549 breast, 1.49 µM with MCF7 breast and above 100 µM in the test with MDA-MB-435.
For `O=C(CC1C(=O)NN(c2ccc(Br)cc2)C1=O)c1cc(O)ccc1O` (stereo unspecified), the GI50 was 13900 nM with BT-549 breast, 21200 nM in the test on MCF7 breast, 7200 nM in the test on MDA-MB-435 and 8.44 µM in the test on MDA-MB-231 breast. Also, the TGI is above 50 µM in the test with BT-549 breast, above 50 µM with MCF7 breast, 23.1 µM in the test with MDA-MB-435 and 22.4 µM in the test on MDA-MB-231 breast.
As to `O=C(CCc1nnc2sc(-c3ccc(Cl)cc3Cl)nn12)c1nc2ccccc2[nH]1`, the GI50 in the test with BT-549 breast is 2140 nM; in the test on MCF7 breast it was 466 nM; with MDA-MB-435 it was 382 nM; in the test on MDA-MB-231 breast, 0.746 µM. Moreover, the TGI with BT-549 breast worked out at 4.99 µM; with MCF7 breast, 2.45 µM; in the test on MDA-MB-435, 2.22 µM; with MDA-MB-231 breast it was 2.21 µM.
As to `COc1ccc(-c2nc(-c3nc4ccc(Cl)cc4[nH]3)c3ccccn23)cc1`, the GI50 was 2740 nM in the test with BT-549 breast, 3150 nM with MCF7 breast, 2300 nM with MDA-MB-435 and 2.77 µM in the test on MDA-MB-231 breast. Further, the TGI was determined as 6.63 µM with BT-549 breast, 16 µM in the test with MCF7 breast, 7.64 µM with MDA-MB-435 and 7.75 µM in the test on MDA-MB-231 breast.
On to `CC/C=C\C[C@@H](O)C/C=C1/C(=O)C=C[C@H]1C/C=C\CCCC(=O)OC`, for which the GI50 was 2940 nM in the test on BT-549 breast, 2230 nM in the test on MCF7 breast, 1930 nM in the test on MDA-MB-435 and 6.06 µM with MDA-MB-231 breast. Moreover, the TGI with BT-549 breast came to 8.81 µM; in the test with MCF7 breast, 13.1 µM; in the test with MDA-MB-435, 5.86 µM; with MDA-MB-231 breast it was 20.5 µM.
Turning to `CCCn1c(=S)sc2c1nc(C)n1c(Nc3ccccc3)nnc21`, the GI50 with BT-549 breast was 2990 nM; with MCF7 breast, 6310 nM; in the test with MDA-MB-435 it was 3220 nM; in the test with MDA-MB-231 breast, 9.71 µM. The TGI in the test on BT-549 breast was 12 µM; in the test with MCF7 breast it was 47.3 µM; in the test on MDA-MB-435, 24.1 µM; in the test with MDA-MB-231 breast it was 33 µM.
`CC[C@@]1(c2ccccc2)C2=C(CC(C)(C)CC2=O)Nc2[nH]ncc21`: the GI50 with BT-549 breast is above 100000 nM; in the test on MCF7 breast it was above 100000 nM; with MDA-MB-435, above 100000 nM; in the test on MDA-MB-231 breast, above 100 µM. Further, the TGI in the test with BT-549 breast, with MCF7 breast, in the test on MDA-MB-435 and with MDA-MB-231 breast was above 100 µM each time.
With `CCCCCCCC(=O)OCC/C=C/C1OC1C1OC(=O)/C=C\C=C\c2nc(oc2C)/C=C(/C)CCC2OC2C1OC(=O)NC(C)=O` (stereo unspecified), the GI50 in the test on BT-549 breast is 46.6 nM; in the test with MCF7 breast, 36.8 nM; with MDA-MB-231 breast, 0.0625 µM. Also, the TGI in the test with BT-549 breast is 0.168 µM; in the test on MCF7 breast it was 0.481 µM; in the test with MDA-MB-231 breast it was 6.38 µM.
`CCCCCCCCn1ccc2cc(NC(=O)Cn3cc(CN4CCCC4)nn3)ccc21`: the GI50 is 1650 nM in the test on BT-549 breast, 1710 nM in the test on MCF7 breast, 1730 nM in the test on MDA-MB-435 and 1.84 µM with MDA-MB-231 breast. Moreover, the TGI in the test on BT-549 breast was found to be 3.39 µM; with MCF7 breast it was 3.34 µM; in the test with MDA-MB-435, 3.24 µM; in the test with MDA-MB-231 breast, 3.49 µM.
Turning to `NC(=O)NS(=O)(=O)c1ccc(N2N=C(C(F)(F)F)CC2c2cc(C(F)(F)F)cc(C(F)(F)F)c2)cc1` (stereo unspecified), the GI50 is 4280 nM with BT-549 breast, 1850 nM in the test with MCF7 breast, 2570 nM in the test on MDA-MB-435 and 10.2 µM in the test with MDA-MB-231 breast. Further, the TGI in the test on BT-549 breast came out at 16.5 µM; in the test on MCF7 breast it was 4.86 µM; in the test with MDA-MB-435, 7.16 µM; with MDA-MB-231 breast, 22.7 µM.
For `C[N+]1=C(/C=C/c2ccc(O)c3ncccc23)C(C)(C)c2ccccc21`, the GI50 with BT-549 breast is 2640 nM; in the test with MCF7 breast it was 2710 nM; in the test with MDA-MB-435 it was 2350 nM; with MDA-MB-231 breast, 2.75 µM. In addition, the TGI in the test with BT-549 breast was determined as 10.3 µM; in the test with MCF7 breast, 10.7 µM; in the test on MDA-MB-435, 7.01 µM; in the test on MDA-MB-231 breast, 11 µM.
For `COc1cc2cc(Oc3ccc(NC(=O)Nc4ccc(Cl)c(C(F)(F)F)c4)cc3)c(C)nc2cc1OCCN1CCOCC1`, the GI50 with BT-549 breast was 2630 nM; in the test with MCF7 breast, 1260 nM; with MDA-MB-435, 1940 nM; in the test with MDA-MB-231 breast it was 2 µM. Also, the TGI worked out at 9.33 µM with BT-549 breast, 3.33 µM with MCF7 breast, 4.1 µM with MDA-MB-435 and 5.07 µM in the test with MDA-MB-231 breast.
For `COC(=O)Nc1nc2ccc(Oc3ccc(NC(=O)Nc4cc(C(F)(F)F)ccc4F)cc3)cc2s1`, the GI50 in the test on BT-549 breast is above 25000 nM; in the test with MCF7 breast, above 19600 nM; with MDA-MB-435, 7370 nM; in the test with MDA-MB-231 breast, 9.05 µM. For the same molecule, the TGI in the test on BT-549 breast, in the test on MCF7 breast, in the test on MDA-MB-435 and with MDA-MB-231 breast was above 25 µM each time.
For `Cc1cc2c(cc1Cl)SC1=NN(C)S(=O)N1S2(=O)=O` (stereo unspecified), the GI50 is above 100000 nM in the test with BT-549 breast, above 100000 nM with MCF7 breast, above 100000 nM in the test on MDA-MB-435 and above 100 µM with MDA-MB-231 breast. Also, the TGI with BT-549 breast, with MCF7 breast, in the test with MDA-MB-435 and in the test with MDA-MB-231 breast was above 100 µM each time.
For `N#CSC1CCCCNC1=O` (stereo unspecified), the TGI was 21.5 µM in the test on BT-549 breast, 18.3 µM in the test on MCF7 breast, 34.8 µM with MDA-MB-435 and 33 µM in the test with MDA-MB-231 breast.
As for `COc1ccc2c(c1)CCCN2c1c2ccccc2nc2ccccc12`, the GI50 in the test with BT-549 breast was 490 nM; in the test with MCF7 breast, 316 nM; in the test on MDA-MB-231 breast it was 0.665 µM. Further, the TGI in the test on BT-549 breast was 6.28 µM; with MCF7 breast it was 33.2 µM; in the test on MDA-MB-231 breast it was above 100 µM.

For the origin of these results see PubChem BioAssay (NCI).
